Test results as given in ChEMBL document CHEMBL1124285, “Conformational analysis and structural comparisons of (1R,3S)-(+)- and (1S,3R)-(-)-tefludazine, (S)-(+)- and (R)-(-)-octoclothepin, and (+)-dexclamol in relation to dopamine receptor antagonism and amine-uptake inhibition” (J Med Chem, 1988).

What was measured:
D(2) dopamine receptor = D(2) dopamine receptor (Rattus norvegicus, UniProt P61169); assay: Binding affinity against Dopamine receptor D2 using [3H]spiroperidol
Rattus norvegicus [1] = species: Rattus norvegicus; assay: Inhibition of [3H]norepinephrine uptake in rat brain synaptosomes; type: functional, organism-based
Rattus norvegicus [2] = species: Rattus norvegicus; assay: Inhibition of [3H]-dopamine uptake in rat brain synaptosomes; type: functional, organism-based

Sequence of D(2) dopamine receptor (P61169 whole entry): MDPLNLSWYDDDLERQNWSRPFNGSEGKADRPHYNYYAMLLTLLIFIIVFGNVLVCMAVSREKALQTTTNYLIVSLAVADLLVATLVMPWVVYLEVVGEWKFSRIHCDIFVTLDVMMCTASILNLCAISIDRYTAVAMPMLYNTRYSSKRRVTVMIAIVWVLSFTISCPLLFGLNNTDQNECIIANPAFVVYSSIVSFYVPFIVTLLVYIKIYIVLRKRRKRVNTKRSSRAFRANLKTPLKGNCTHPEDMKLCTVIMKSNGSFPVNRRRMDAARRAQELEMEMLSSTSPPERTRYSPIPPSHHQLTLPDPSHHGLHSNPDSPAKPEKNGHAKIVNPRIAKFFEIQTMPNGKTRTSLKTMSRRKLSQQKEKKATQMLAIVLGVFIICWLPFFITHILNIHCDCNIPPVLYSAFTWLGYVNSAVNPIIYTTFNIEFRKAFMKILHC

| IC50 (D(2) dopamine receptor) | IC50 (Rattus norvegicus [1]; Rattus norvegicus, Brain, 3 h) | IC50 (Rattus norvegicus [2]; Rattus norvegicus, Brain, 3 h) | IC50 (Rattus norvegicus [1]) | IC50 (Rattus norvegicus [2]) | Molecule |
| --- | --- | --- | --- | --- | --- |
| 14 nM | 15 µM | 2.2 µM | – | – | OCCN1CCN([C@@H]2C[C@@H](c3ccc(F)cc3)c3ccc(C(F)(F)F)cc32)CC1 [TEFLUDAZINE] |
| 900 nM | – | – | – | – | CC(C)[C@@]1(O)CCN2C[C@@H]3c4ccccc4CCc4cccc(c43)[C@H]2C1 [DEXCLAMOL] |

More lines, now with the values behind:

| Molecule | IC50 (D(2) dopamine receptor) | IC50 (Rattus norvegicus [1]; Rattus norvegicus, Brain, 3 h) | IC50 (Rattus norvegicus [2]; Rattus norvegicus, Brain, 3 h) | IC50 (Rattus norvegicus [1]) | IC50 (Rattus norvegicus [2]) |
| --- | --- | --- | --- | --- | --- |
| (-)-BUTACLAMOL | – | – | – | 7.4 µM | 9.5 µM |
| CC(C)[C@]1(O)CCN2C[C@H]3c4ccccc4CCc4cccc(c43)[C@@H]2C1 | 6 nM | – | – | – | – |
| OCCN1CCN([C@H]2C[C@H](c3ccc(F)cc3)c3ccc(C(F)(F)F)cc32)CC1 | 590 nM | 0.73 µM | 0.13 µM | – | – |
| CN1CCN(C2Cc3ccccc3Sc3ccc(Cl)cc32)CC1 (racemic) [CLOROTEPINE] | – | 0.00064 µM | 6.3 µM | – | – |
